# Measurements published in US20240018122A1, “PYRIDAZINYL AMINO DERIVATIVES AS ALK5 INHIBITORS” (CHIESI FARMACEUTICI S.P.A., priority 2020, published 2024).
# Target: human ALK5 (Homo sapiens (Human), UniProt P36897)
# Assay: ADP-GLO Kinases assay, inhibitory activity on ALK5
# Assay type: biochemical
# Details: not given
# Procedure: The enzymatic activity of compounds of the present invention was monitored measuring the formation of ADP using the ADP-GLO Kinases assay. Following the incubation of the purified enzyme, a substrate and ATP, the produced ADP was converted into ATP, which in turn was converted into light by Ultra-Glo Luciferase. The luminescent signal positively correlated with ADP amount and kinase activity. […] The assay was performed in 384-well format and was validated using a selection of reference compounds that was tested in 11 point concentration-response curve.
# Sequence of human ALK5 (P36897 80-503 limits assumed): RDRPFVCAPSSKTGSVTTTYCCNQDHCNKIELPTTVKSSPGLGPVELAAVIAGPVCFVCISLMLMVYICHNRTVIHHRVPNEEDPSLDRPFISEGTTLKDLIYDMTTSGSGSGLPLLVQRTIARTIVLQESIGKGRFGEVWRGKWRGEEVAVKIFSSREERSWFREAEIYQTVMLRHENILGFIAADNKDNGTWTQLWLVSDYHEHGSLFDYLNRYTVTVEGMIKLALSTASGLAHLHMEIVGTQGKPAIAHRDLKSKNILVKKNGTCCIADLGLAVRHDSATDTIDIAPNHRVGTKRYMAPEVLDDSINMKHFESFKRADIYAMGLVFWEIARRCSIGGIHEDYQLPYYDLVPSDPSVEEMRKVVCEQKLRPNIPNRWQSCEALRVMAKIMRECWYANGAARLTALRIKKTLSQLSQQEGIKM
row,Compound,IC50 [nM]
1,"CN1CC2(CCN(C(=O)Oc3ccc4c(Nc5cnnc(-c6cc(Cl)ccc6F)c5)ccnc4c3)C2)C1 [Example 119, 4-{[6-(5-Chloro-2-Fluorophenyl)Pyridazin-4-Yl]Amino}Quinolin-7-Yl 2-Methyl-2,6-Diazaspiro[3.4]Octane-6-Carboxylate]",1 to 5
2,"CN1CCN(CCC2CCN(C(=O)Oc3ccc4c(Nc5cnnc(-c6cc(Cl)ccc6F)c5)ccnc4c3)CC2)CC1 [Example 70, 4-{[6-(5-Chloro-2-Fluorophenyl)Pyridazin-4-Yl]Amino}Quinolin-7-Yl 4-[2-(4-Methylpiperazin-1-Yl)Ethyl]Piperidine-1-Carboxylate]",1 to 5

# Same assay, conditions: purified recombinant human ALK5 2.6 nM, TGFβ1 peptide substrate, 25° C, 150 min incubation, ADP-Glo detection; read-out: ALK5 IC50
row,Compound,IC50 [nM]
1,"CN1CCN(CCOc2ccc3c(Nc4cnnc(-c5cc(Cl)ccc5F)c4)ccnc3c2)CC1 [Example 12, N-[6-(5-Chloro-2-Fluorophenyl)Pyridazin-4-Yl]-7-[2-(4-Methylpiperazin-1-Yl)Ethoxy]Quinolin-4-Amine]",< 1
2,"Fc1ccc(Cl)cc1-c1cc(Nc2ccnc3cc(OCCN4CCOCC4)ccc23)cnn1 [Example 3, N-[6-(5-Chloro-2-Fluorophenyl)Pyridazin-4-Yl]-7-[2-(Morpholin-4-Yl)Ethoxy]Quinolin-4-Amine]",< 1
3,"COC(=O)CCN1CCN(CCOc2ccc3c(Nc4cnnc(-c5cc(Cl)ccc5F)c4)ccnc3c2)CC1 [Example 60, Methyl 3-(4-{2-[(4-{[6-(5-Chloro-2-Fluorophenyl)Pyridazin-4-Yl]Amino}Quinolin-7-Yl)Oxy]Ethyl}Piperazin-1-Yl)Propanoate]",< 1
4,"CN1C[C@@H]2CN(CCOc3ccc4c(Nc5cnnc(-c6cc(Cl)ccc6F)c5)ccnc4c3)C[C@@H]2C1 [Example 55, Cis N-[6-(5-Chloro-2-Fluorophenyl)Pyridazin-4-Yl]-7-(2-{5-Methyl-Octahydropyrrolo[3,4-c]Pyrrol-2-Yl}Ethoxy)Quinolin-4-Amine]",< 1
5,"OCCN(CCO)CCN1CCN(CCOc2ccc3c(Nc4cnnc(-c5cc(Cl)ccc5F)c4)ccnc3c2)CC1 [Example 75, 2-{[2-(4-{2-[(4-{[6-(5-Chloro-2-Fluorophenyl)Pyridazin-4-Yl]Amino}Quinolin-7-Yl)Oxy]Ethyl}Piperazin-1-Yl)Ethyl](2-Hydroxyethyl)Amino}Ethan-1-Ol]",< 1
6,"COC(=O)c1cc2c(Nc3cc(-c4cc(Cl)ccc4F)nnc3CO)ccnc2cc1OCCN1CCN(C)CC1 [Example 165, Methyl 4-{[6-(5-Chloro-2-Fluorophenyl)-3-(Hydroxymethyl)Pyridazin-4-Yl]Amino}-7-[2-(4-Methylpiperazin-1-Yl)Ethoxy]Quinoline-6-Carboxylate]",< 1
7,"COc1cc2c(Nc3cnnc(-c4cc(Cl)ccc4F)c3)ccnc2cc1OCCN1CCN(C)CC1 [Example 87, N-[6-(5-Chloro-2-Fluorophenyl)Pyridazin-4-Yl]-6-Methoxy-7-[2-(4-Methylpiperazin-1-Yl)Ethoxy]Quinolin-4-Amine]",< 1
8,"Nc1nccc(Nc2cnnc(-c3cc(Cl)ccc3F)c2)n1 [Example C2, N4-[6-(5-chloro-2-fluorophenyl)pyridazin-4-yl]pyrimidine-2,4-diamine, reference compound]",482
9,"CN1CCN(CCCOc2ccc3c(Nc4cnnc(-c5cc(Cl)ccc5F)c4)ccnc3c2)CC1 [Example 29, N-[6-(5-Chloro-2-Fluorophenyl)Pyridazin-4-Yl]-7-[3-(4-Methylpiperazin-1-Yl)Propoxy]Quinolin-4-Amine]",< 1

# Other lines, results leading:
row,IC50 [nM],Compound
1,< 1,"CN1CCC(COc2ccc3c(Nc4cnnc(-c5cc(Cl)ccc5F)c4)ccnc3c2)CC1 [Example 89, N-[6-(5-Chloro-2-Fluorophenyl)Pyridazin-4-Yl]-7-[(1-Methylpiperidin-4-Yl)Methoxy]Quinolin-4-Amine]"
2,< 1,"Cc1nnc(-c2cc(Cl)ccc2F)cc1Nc1ccnc(NC(=O)CN2CCNCC2)c1 [Example 164, N-(4-{[6-(5-Chloro-2-Fluorophenyl)-3-Methylpyridazin-4-Yl]Amino}Pyridin-2-Yl)-2-(Piperazin-1-Yl)Acetamide]"
3,< 1,"Cc1nnc(-c2cc(Cl)ccc2F)cc1Nc1ccnc(NC(=O)CCN2CCN(CCN)CC2)c1 [Example 76, 3-[4-(2-Aminoethyl)Piperazin-1-Yl]-N-(4-{[6-(5-Chloro-2-Fluorophenyl)-3-Methylpyridazin-4-Yl]Amino}Pyridin-2-Yl)Propanamide]"
4,< 1,"Cc1nnc(-c2cc(Cl)ccc2F)cc1Nc1ccnc(NC(=O)CCN2CCN(C)C(C(=O)O)C2)c1 (stereo not shown) [Example 95, 4-{2-[(4-{[6-(5-chloro-2-fluorophenyl)-3-methylpyridazin-4-yl]amino}pyridin-2-yl)carbamoyl]ethyl}-1-methylpiperazine-2-carboxylic acid]"
5,1 to 5,"O=C(CCN1CCN(CC(F)(F)F)CC1)Nc1cc(Nc2cnnc(-c3cc(Cl)ccc3F)c2)ccn1 [Example 47, N-(4-{[6-(5-Chloro-2-Fluorophenyl)Pyridazin-4-Yl]Amino}Pyridin-2-Yl)-3-[4-(2,2,2-Trifluoroethyl)Piperazin-1-Yl]Propanamide]"
6,1 to 5,"CN1CCN(C(=O)c2cc3c(Nc4cnnc(-c5cc(Cl)ccc5F)c4)ccnc3[nH]2)CC1 [Example 38, 6-(5-Chloro-2-Fluorophenyl)-N-[2-(4-Methylpiperazine-1-Carbonyl)-1H-Pyrrolo[2,3-13]Pyridin-4-Yl]Pyridazin-4-Amine]"
7,< 1,CN1CCN(CCC(=O)Nc2cc(Nc3cc(-c4cc(Cl)ccc4F)nnc3C3CC3)ccn2)CC1 [Example 173]
8,< 1,"CCOC1(CO)CN(CCC(=O)Nc2cc(Nc3cc(-c4cc(Cl)ccc4F)nnc3C)ccn2)C1 [Example 79, N-(4-{[6-(5-chloro-2-fluorophenyl)-3-methylpyridazin-4-yl]amino}pyridin-2-yl)-3-[3-ethoxy-3-(hydroxymethyl)azetidin-1-yl]propanamide]"
9,< 1,"CN1CCC(CCNC(=O)c2cc3c(Nc4cnnc(-c5cc(Cl)ccc5F)c4)ccnc3[nH]2)CC1 [Example 27, 4-{[6-(5-Chloro-2-Fluorophenyl)Pyridazin-4-Yl]Amino}-N-[2-(1-Methylpiperidin-4-Yl)Ethyl]-1H-Pyrrolo[2,3-b]Pyridine-2-Carboxamide]"
10,< 1,"O=C(Nc1cc(Nc2cnnc(-c3cc(Cl)ccc3F)c2)ccn1)C1CC1 [Example 7, N-(4-{[6-(5-Chloro-2-Fluorophenyl)Pyridazin-4-Yl]Amino}Pyridin-2-Yl)Cyclopropanecarboxamide]"
11,< 1,"CC(=O)N1CCCN(CCOc2ccc3c(Nc4cnnc(-c5cc(Cl)ccc5F)c4)ccnc3c2)C1 [Example 56, 1-(3-{2-[(4-{[6-(5-Chloro-2-Fluorophenyl)Pyridazin-4-Yl]Amino}Quinolin-7-Yl)Oxy]Ethyl}-1,3-Diazinan-1-Yl)Ethan-1-One]"
12,< 1,"O=C(CCN1CCN(CCO)CC1)Nc1cc(Nc2cc(-c3cc(Cl)ccc3F)nnc2C(F)(F)F)ccn1 [Example 184, N-(4-{[6-(5-Chloro-2-Fluorophenyl)-3-(Trifluoromethyl)Pyridazin-4-Yl]Amino}Pyridin-2-Yl)-3-[4-(2-Hydroxyethyl)Piperazin-1-Yl]Propenamide]"
13,< 1,"CNCCn1cc(C(=O)Nc2cc(Nc3cc(-c4cc(Cl)ccc4F)nnc3C)ccn2)cn1 [Example 155, N-(4-{[6-(5-Chloro-2-Fluorophenyl)-3-Methylpyridazin-4-Yl]Amino}Pyridin-2-Yl)-1-[2-(Methylamino)Ethyl]-1H-Pyrazole-4-Carboxamide]"
14,< 1,CS(=O)(=O)CCN1CCN(CCC(=O)Nc2cc(Nc3cc(-c4cc(Cl)ccc4F)nnc3C(F)(F)F)ccn2)CC1 [Example 185]
